Source: patent publication US20250262167A1, “COMPOUNDS, TARGETS AND PATHWAYS FOR MACROPHAGE MODULATION” (Massachusetts Institute of Technology, priority 2020, published 2025)

Key:
[1] = HFD 16 weeks
Method: At week 15 plus 3 days, mice from FIG. 32A were starved overnight (12˜16 hrs) with only water. Glucose (1 mg/kg) was injected intraperitoneally and blood glucose levels were measured at the indicated time. AUC were calculated for statistics (right panel).
Liver samples fixed in 10% buffered formalin were embedded in paraffin, sliced (2 μm sections), and stained with hematoxylin and eosin (H&E). Histological examination for morphological changes was performed in a blinded manner. Liver sections were scored according to the criteria of the NAFLD activity score (NAS).
The GTT were performed in mice 19 weeks after feeding with HFD or NC. For GTT, mice were fasted overnight, followed by an intraperitoneal injection of 1 g/kg glucose. […] Blood was obtained from the tail vein before (0 min) and after (15, 30, 60, 90 and 120 min) the injection of glucose or insulin. Glucose levels were measured using an automatic glucometer (Roche Diagnostics, Rotkreuz, Switzerland).
B6 mice were fed with HFD for 16 weeks.

[2] = tested on: human Kupffer cells from NAFLD patients; details: 500 nM, ex vivo, 24 hours
Method: CD14^+ KCs were sorted from single cell suspension of NAFLD human liver biopsies (n=2) and treated with DMSO or DPI (500 nM) for 24 hrs, followed by RNAseq to quantify gene expression.
Human liver biopsies were obtained from livers procured from deceased donors deemed unacceptable for liver transplantation. Samples were collected with appropriate institutional ethics approval from The First Affiliated Hospital of Jilin University. All experiments were performed in accordance with the relevant guidelines and regulations. In addition, written informed consent was obtained from each subject. During organ retrieval, donor liver grafts were perfused in situ with cold (HTK) solution (Methapharm) to thoroughly flush out circulating cells, leaving only tissue resident cells that are then used to prepare a single-cell suspension to isolate immune cells. The unused liver caudate lobe post liver transplantation was collected and flushed with HBS+EGTA at 4° C. to remove any non-liver resident cells. Single-cell isolation from the resected caudate lobe was performed with a modified two-step collagenase procedure (MacFarland et al. 2017 ACnano). Single cell suspension was stained with anti-CD45 to sort all immune cells for scRNAseq or anti-CD14 to sort KCs for in vitro treatment by flow cytometry (BD Aria).
RNAs were extracted with RNeasy MinElute Kit (Qiagen), converted into cDNA and sequenced using Next-Generation Sequencing (Illumina). RNA-seq data were aligned to the human genome (version hg19) and raw counts of each genes of each sample were calculated with bowtie2 2.2.3 (Langmead et al. 2009) and RSEM 1.2.15 (Li et al. 2011). Differential expression analysis was performed using the program edgeR at P<0.05 with a two-fold change (Robinson et al. 2010). The gene expression level across different samples was normalized and quantified using the function of cpm. DEGs were annotated using online functional enrichment analysis tool DAVID (Huang et al. 2007). […]

[3] = tested on: PKM2; assay: PKM enzymatic activity (colorimetric kit) in treated ImKCs; type: cell-based, mouse; details: parental ImKCs, 50 nM, β-arrestin2-dependent
Method: Data are presented as the mean±sd (n=4). […] Data are presented as the mean±sd (n=6).
FIGS. 29A-29B show comparison of DPI's effect on glycolysis in wild-type and Pkm^−/− BMDMs. […] FIGS. 29C-29D show activation of PKM2 and GAPDH enzymatic activity by DPI is inhibited by ERK1/2 inhibitor. ImKCs were treated with DMSO or DPI alone (500 nM) or DPI plus ERK1/2 inhibitor (SCH772984, […]) for 6 hrs and the enzymatic activities of PKM2 (c) and GAPDH (d) were measured by colorimetric assay kits (Biovision). Data are presented as the mean±sd (n=6).
The enzymatic activities of PKM and GAPDH were measured using the pyruvate kinase activity assay kit (Biovision, #K709) and GAPDH activity assay kit (Biovision, #K680) according to the manufacturer's protocols, respectively.

[4] = tested on: hMDM with anti-CD20 labelled human B lymphoma cells (GMB); assay: ADCP of human macrophages; type: cell-based; parameters: dose or concentration left out as unconfirmed; details: co-culture 2 hrs
Method: Conditioned medium (CM) was collected and filtered. B16F10 melanoma cells were cultured for 12 hrs with CM or CM heat-inactivated at 95° C. for 5 min. The number of tumor cells were quantified by flow cytometry. Data were summarized from two independent experiments. * P<0.05 by T-test. P values are shown based on t-test. […] Mouse BMMs (FIG. 14B) or hMDM (FIG. 14C) were treated with […] thiostrepton for 24 hrs, then co-cultured with equal number of eFluro670 and anti-CD20 labelled human B-cell lymphoma cells for 2 hrs, and analyzed by flow cytometry. Macrophages that have phagocytosed tumor cells are identified as efluro670+ and CD14+. Shown are representative eFluro670 histograms gating on CD14+ macrophages from three different experiments.
To examine whether thiostrepton-activating macrophages or conditioned medium have effects on tumor cell growth, BMMs were treated with thiostrepton for 24 hrs. Equal numbers of primed BMMs and melanoma cells (B16F10) were co-cultured for 12 hrs. […] Thiostrepton elevated ADCP of both human and mouse macrophages (FIGS. 14B-14C).

[5] = tested on: hMDMs; assay: RNA-seq transcriptional response of hMDMs (GSEA, GO enrichment); type: cell-based, human; details: hMDMs, 2.5 μM, 24 hours
Method: Duplicate hMDM samples were treated with 2 M2-activating and 6 M1-activating compounds as well as IL-4 and IFNγ for 24 hrs. Gene expression levels were measured by RNA-seq separately. GSEA preranked analysis was performed based on the whole genome gene list ranked on gene expression changes using a gene set of 49 transcriptional modules in response to 29 stimuli in hMDMs. bosut.: bosutinib; alster.: alsterpaullone; mocet.: mocetinostat; thios.: thiostrepton; niclo.: niclosamide; chlor.: chlorhexidine; fenb.: fenbendazole; fluvo.: fluvoxamine. […] Duplicate hMDM samples were stimulated with each ligand and analyzed by RNA-seq separately.
DEGs were identified by edgeR at P<0.05 with at least 2 fold-change.
RNAs were extracted with RNeasy MiniElute kit (Qiagen), converted into cDNA and sequenced using Next-Generation Sequencing (Illumina). […] Differential expression analysis was performed using the program edgeR at P<0.05 with a 2 fold-change. The gene expression level across different samples was normalized and quantified using the function of cpm. Differentially expressed genes were annotated using online functional enrichment analysis tool DAVID (http://david.ncifcrf.gov/). Gene set enrichment analysis were performed with GSEA with FDR q-value<0.05.
Fresh hMDMs were treated with compounds at the EC for 24 hours, followed by RNA-seq.

[6] = Macrophage numbers and gut bacterial counts in non-tumor bearing mice; type: in vivo, mouse
Method: (n=3). Shown are representative F4/80 versus CD11b staining profiles gating on CD45+ cells. I.P.: intraperitoneal injection; S.C.: paratumor subcutaneous injection. […] Data shown are mean±s.d. n.s., not significant by T-test.
Next, we examined whether thiostrepon has anti-tumor effect in vivo through activating macrophages. B16F10 melanoma cells were injected subcutaneously into syngeneic C57BL/6 mice. 6 and 12 days later, tumor-bearing mice were treated with either vehicle (DMSO), melanoma specific antibody TA99, thiostrepton, or combination of TA99 and thiostrepton by intraperitoneal injection (I.P.). […] Since thiostrepton inhibits cell proliferation and is an antibiotic, to exclude its systematic effects on immune cells and on gut microbiome, tumor-bearing mice were treated by para-tumor subcutaneous injection (S.C.) with a lower dose of thiostrepton (20 mg/kg). […] Consistently, more abundant macrophages were stained positive for F4/80 by immunochemistry in tumor sections from mice treated with thiostrepton or thiostrepton plus TA99 than mice treated with vehicle or T99 (FIG. 6E).

| SMILES | glucose tolerance [1] | lipid droplet, steatosis and collagen deposition in the liver [1] | weight gain ([1]; 2 mg/kg every 5 days from week 9) | weight of iWAT ([1]; vs vehicle) | expression of DAM markers APOE, CLEC10A, TREM2 and C1QA [2] | expression of genes associated with chemokine-mediated signaling, chemotaxis and inflammatory response [2] | expression of glycolytic genes [2] | PKM2 enzymatic activity [3] | ADCP [4] | expression of M2 chemokine CCL24 [5] | expression of proinflammatory cytokines TNFα and IL-1β [5] | total bacterial counts in the gut ([6]; both dosing strategies) | macrophages in the spleen and bone marrow ([6]; intraperitoneal administration) | macrophage numbers ([6]; subcutaneous administration) |
| --- | --- | --- | --- | --- | --- | --- | --- | --- | --- | --- | --- | --- | --- | --- |
| c1ccc2c(c1)[I+]c1ccccc1-2 [Diphenyleneiodonium chloride] | increased | reduced | significantly reduced | significantly lower | downregulated | suppressed | upregulated | immediate increase |  |  |  |  |  |  |
| C=C(NC(=O)C(=C)NC(=O)c1csc(C2=N[C@@H]3c4csc(n4)[C@H]4NC(=O)c5csc(n5)[C@H]([C@](C)(O)[C@@H](C)O)NC(=O)[C@H]5CSC(=N5)/C(=C/C)NC(=O)[C@H]([C@@H](C)O)NC(=O)c5csc(n5)[C@]3(CC2)NC(=O)[C@H](C)NC(=O)C(=C)NC(=O)[C@H](C)NC(=O)[C@H]([C@@H](C)CC)N[C@@H]2C=Cc3c([C@H](C)O)cc(nc3[C@H]2O)C(=O)O[C@@H]4C)n1)C(N)=O [Thiostrepton] |  |  |  |  |  |  |  |  | elevated | down-regulate | polarized to express | did not change | increased numbers | did not have significant effects |
